Some results are limits rather than exact numbers.

Results on five molecules are retold here after ChEMBL document CHEMBL4130634, “Discovery of Reversible DNA Methyltransferase and Lysine Methyltransferase G9a Inhibitors with Antitumoral in Vivo Efficacy” (J Med Chem, 2018).

In data set [1] the target is T1, Histone-lysine N-methyltransferase EHMT2 (Homo sapiens, UniProt Q96KQ7).
T1 sequence (Q96KQ7 whole entry): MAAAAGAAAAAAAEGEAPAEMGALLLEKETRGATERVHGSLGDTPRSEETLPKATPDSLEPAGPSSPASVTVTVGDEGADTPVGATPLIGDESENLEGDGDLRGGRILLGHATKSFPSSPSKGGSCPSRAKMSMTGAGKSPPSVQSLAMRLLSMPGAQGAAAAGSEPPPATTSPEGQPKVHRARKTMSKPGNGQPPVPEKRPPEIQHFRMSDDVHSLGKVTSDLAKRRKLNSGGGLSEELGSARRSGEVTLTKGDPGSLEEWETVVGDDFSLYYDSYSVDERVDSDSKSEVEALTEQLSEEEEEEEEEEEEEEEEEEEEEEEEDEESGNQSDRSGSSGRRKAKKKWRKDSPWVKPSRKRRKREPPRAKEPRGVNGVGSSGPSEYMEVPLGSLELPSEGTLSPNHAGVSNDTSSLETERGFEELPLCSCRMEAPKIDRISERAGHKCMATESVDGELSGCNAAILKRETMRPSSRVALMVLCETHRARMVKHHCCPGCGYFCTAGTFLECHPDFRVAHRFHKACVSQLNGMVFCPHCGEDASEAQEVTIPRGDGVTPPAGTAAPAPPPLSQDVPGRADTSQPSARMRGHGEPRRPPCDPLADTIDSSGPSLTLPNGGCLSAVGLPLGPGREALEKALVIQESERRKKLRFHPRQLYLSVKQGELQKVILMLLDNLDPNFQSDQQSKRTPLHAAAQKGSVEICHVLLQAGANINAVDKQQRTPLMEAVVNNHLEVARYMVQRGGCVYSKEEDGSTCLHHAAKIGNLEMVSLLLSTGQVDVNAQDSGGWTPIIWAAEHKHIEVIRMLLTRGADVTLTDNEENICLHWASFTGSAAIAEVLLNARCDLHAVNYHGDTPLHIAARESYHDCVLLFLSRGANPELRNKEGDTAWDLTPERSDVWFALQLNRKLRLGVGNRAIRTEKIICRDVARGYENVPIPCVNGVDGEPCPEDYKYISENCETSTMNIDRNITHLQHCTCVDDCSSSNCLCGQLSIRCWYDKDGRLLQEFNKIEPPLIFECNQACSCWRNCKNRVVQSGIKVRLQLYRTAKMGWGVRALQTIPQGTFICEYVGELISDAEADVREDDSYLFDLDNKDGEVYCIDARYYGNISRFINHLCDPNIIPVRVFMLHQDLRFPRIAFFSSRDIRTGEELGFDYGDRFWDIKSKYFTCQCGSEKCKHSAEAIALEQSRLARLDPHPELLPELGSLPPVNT
The experiment in a line: Inhibition of human G9a using biotinylated-H3K9 peptide as substrate after 1 hr in presence of SAM by TR-FRET assay. (In general: Time-resolved FRET reads energy transfer from a long-lived donor to a nearby acceptor.)

Data set [2] has as its target T1, Histone-lysine N-methyltransferase EHMT2. The data set is described as follows: Inhibition of G9a (unknown origin).
In data set [3] the target is DNA (cytosine-5)-methyltransferase 1 (Homo sapiens, UniProt P26358). The experiment in a line: Inhibition of human DNMT1 using polydeoxyinosine polydeoxycytosine DNA as substrate after 15 mins in presence of SAM by TR-FRET assay.
The nature of data set [4]: AUC (0 to 24 hrs) in RARG2-/-gammac-/- Balb/c mouse at 5 mg/kg, ip administered as single dose by LC-MS/MS analysis. It is filed as ADME, organism-based. On the set-up: time < 24 hr, dose 5 mg/kg, route intraperitoneal. Particulars: in vivo.
For data set [5], the system named is MV4-11. The data set is described as follows: Antitumor activity against human MV4-11 cells xenografted in SCID-beige mouse assessed as tumor growth inhibition at 30 mg/kg/day via osmotic pump for 2 weeks relative to control. The following applies: MV4-11, 336 h, read-out: TGI. Type of data set: functional.
The nature of data set [6]: Growth inhibition of human LAL-CUN-2 cells after 48 hrs by MTS assay. Type of data set: functional. In general terms: Tetrazolium dyes change colour on reduction, which living cells bring about.
The nature of data set [7]: Metabolic stability in mouse liver microsomes assessed as parent compound remaining at 1 uM preincubated for 10 mins followed by NADP addition after 20 mins by LC-MS/MS analysis. Type of data set: ADME, microsome. The following applies: read-out: Stability.
The nature of data set [8]: (§1) AUC (0 to 24 hrs) in RARG2-/-gammac-/- Balb/c mouse at […], iv administered as single dose by LC-MS/MS analysis. It is filed as ADME, organism-based. The following applies: in vivo. On the set-up: dose 1.9 mg/kg, time < 24 hr, route intravenous.
Data set [9] can be described thus: Volume of distribution at steady state in RARG2-/-gammac-/- Balb/c mouse at […], iv administered as single dose by LC-MS/MS analysis. It is filed as ADME, organism-based. The following applies: in vivo, read-out: Vdss.
The nature of data set [10]: Clearance in RARG2-/-gammac-/- Balb/c mouse at […], iv administered as single dose by LC-MS/MS analysis. Type of data set: ADME, organism-based. The following applies: in vivo.
Data set [11] in a line: Half life in mouse liver microsomes at 1 uM preincubated for 10 mins followed by NADP addition after 20 mins by LC-MS/MS analysis. It is filed as ADME, microsome. (Liver microsomes are a subcellular fraction often used to study metabolism.)
The nature of data set [12]: Half life in RARG2-/-gammac-/- Balb/c mouse at […], iv administered as single dose by LC-MS/MS analysis. The following applies: in vivo. Type of data set: ADME, organism-based.
Data set [13] in a line: Half life in human liver microsomes at 1 uM preincubated for 10 mins followed by NADP addition after 20 mins by LC-MS/MS analysis. It is filed as ADME, microsome.
The nature of data set [14]: Metabolic stability in human liver microsomes assessed as parent compound remaining at 1 uM preincubated for 10 mins followed by NADP addition after 20 mins by LC-MS/MS analysis. Type of data set: ADME, microsome.
For data set [15], the system named is MV4-11. The experiment in a line: Antitumor activity against human MV4-11 cells xenografted in RARG2-/-gammac-/- Balb/c mouse assessed as tumor growth inhibition at […], iv for 21 consecutive days starting from day 1 post tumor inoculation measured on day 23 relative to control. Particulars: MV4-11, iv, read-out: TGI. Type of data set: functional.
For data set [16], the system named is MV4-11. The experiment in a line: Growth inhibition of human MV4-11 cells after 48 hrs by MTS assay. Type of data set: functional. The following applies: MV4-11, 48 h.
Data set [17] in a line: as §1. Type of data set: ADME, organism-based. On the set-up: time < 24 hr, dose 2.5 mg/kg, route intravenous. Particulars: in vivo.
Data set [18] has as its system THLE-2. The experiment in a line: Growth inhibition of human THLE2 cells after 72 hrs by MTS assay. Particulars: thle-2, 72 h. It is filed as cell-based.

Chain of DNA (cytosine-5)-methyltransferase 1 (P26358 whole entry): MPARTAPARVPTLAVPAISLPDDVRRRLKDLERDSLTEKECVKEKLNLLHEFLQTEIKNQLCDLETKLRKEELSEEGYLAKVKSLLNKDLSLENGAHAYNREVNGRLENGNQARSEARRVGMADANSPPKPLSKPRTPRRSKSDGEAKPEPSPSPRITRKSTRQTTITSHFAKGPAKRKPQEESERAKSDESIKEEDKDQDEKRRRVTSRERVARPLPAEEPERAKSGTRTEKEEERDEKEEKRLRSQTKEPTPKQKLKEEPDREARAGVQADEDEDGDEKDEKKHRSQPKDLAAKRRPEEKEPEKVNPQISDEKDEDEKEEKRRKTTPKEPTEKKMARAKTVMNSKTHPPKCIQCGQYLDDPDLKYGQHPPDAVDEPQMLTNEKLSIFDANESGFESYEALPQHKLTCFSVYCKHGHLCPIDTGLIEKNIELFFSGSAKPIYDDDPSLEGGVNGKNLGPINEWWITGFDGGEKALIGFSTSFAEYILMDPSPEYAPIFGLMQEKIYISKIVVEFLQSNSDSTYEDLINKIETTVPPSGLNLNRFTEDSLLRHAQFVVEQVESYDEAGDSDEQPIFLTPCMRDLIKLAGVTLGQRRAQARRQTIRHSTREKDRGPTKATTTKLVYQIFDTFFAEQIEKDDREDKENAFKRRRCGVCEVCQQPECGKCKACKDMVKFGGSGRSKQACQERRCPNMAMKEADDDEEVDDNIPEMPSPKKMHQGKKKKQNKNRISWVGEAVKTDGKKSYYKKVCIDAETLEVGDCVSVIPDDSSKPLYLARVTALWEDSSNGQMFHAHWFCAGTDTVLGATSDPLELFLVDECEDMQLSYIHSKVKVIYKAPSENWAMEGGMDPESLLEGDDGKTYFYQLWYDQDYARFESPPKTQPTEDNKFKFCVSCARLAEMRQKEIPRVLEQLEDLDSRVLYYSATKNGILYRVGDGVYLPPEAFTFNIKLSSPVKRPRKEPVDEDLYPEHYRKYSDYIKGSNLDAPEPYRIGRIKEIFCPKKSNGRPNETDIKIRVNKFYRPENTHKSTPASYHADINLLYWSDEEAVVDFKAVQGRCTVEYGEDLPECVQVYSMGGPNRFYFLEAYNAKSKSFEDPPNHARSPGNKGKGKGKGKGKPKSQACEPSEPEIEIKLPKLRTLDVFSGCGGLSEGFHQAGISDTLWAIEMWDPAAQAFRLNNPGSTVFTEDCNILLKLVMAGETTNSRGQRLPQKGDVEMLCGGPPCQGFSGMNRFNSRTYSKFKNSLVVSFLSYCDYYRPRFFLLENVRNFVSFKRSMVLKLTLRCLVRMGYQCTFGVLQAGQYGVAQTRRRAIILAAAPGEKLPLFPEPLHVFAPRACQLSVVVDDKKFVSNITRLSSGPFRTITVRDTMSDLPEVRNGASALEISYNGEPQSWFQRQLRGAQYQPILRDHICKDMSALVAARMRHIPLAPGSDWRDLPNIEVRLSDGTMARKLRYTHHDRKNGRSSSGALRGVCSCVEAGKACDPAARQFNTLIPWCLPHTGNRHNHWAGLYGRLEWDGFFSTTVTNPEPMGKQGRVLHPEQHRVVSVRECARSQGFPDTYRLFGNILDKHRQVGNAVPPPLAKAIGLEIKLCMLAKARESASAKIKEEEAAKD

As a reminder, the IC50 is the midpoint of a concentration-inhibition curve. Consider `Cc1cc(Nc2ccc(NC(=O)c3ccc(Nc4ccnc5ccccc45)cc3)cc2)nc(N)n1`, for which the IC50 in data set [1] was over 10000 nM; in [2], 59000 nM.
One may read the AUC(0-t) as exposure summed from dosing to a finite time, without extrapolation to infinity. Read a high AUC(0-t) as more exposure. As for `COc1cc2c(NC3CCN(C(C)C)CC3)nc(N3CCC(F)(F)CC3)nc2cc1OCCCN1CCCC1`, the half-maximal inhibitory concentration (IC50) in data set [3] is over 50000 nM. In data set [4], this molecule returned an AUC(0-t) at 24 h of 2.31 µM·h.
For the molecule `COc1cc2c(cc1OCCCN1CCCC1)N=C(N)C21CCC1`, in data set [5], the inhibition in vivo at 30 mg/kg/day amounted to 45%.
In general, GI50 refers to the concentration that inhibits growth by half. Lower therefore signals more potent growth inhibition. In general, clearance refers to the volume of plasma or blood freed of the substance per unit of time. Usually half-life stands for the time in which the quantity being followed falls by half. Higher therefore signals slow loss. The molecule `CCc1ccc(-c2cc(NC3CCN(C)CC3)c3cc(OC)c(OCCCN4CCCC4)cc3n2)o1` displayed a GI50 in [6] of 577 nM. Besides, the remaining at 20 min, 1 µM in data set [7] came to 16.9%. Moreover, in data set [8], the AUC(0-t) at 24 h stood at 0.505 µM·h. For the same molecule, in data set [9], the Vd is 88.5 L/kg. Moreover, the clearance in data set [10] is 98.3 mL/min/kg. This molecule had a half-life at 1 µM in [11] of 0.2 h. Moreover, the half-life in [12] is 13.2 h. For the same molecule, in data set [13] (microsomes, 20 min, 1 µM), the t1/2 came to 1.6 h. Moreover, the Stability in data set [14] (microsomes, 20 min, 1 µM) is given as 67.1%.
A word on the LC50: it is the concentration lethal to half of the exposed cells or organisms. Turning to `COc1cc2c(NC3CCN(C)CC3)cc(-c3ccc(C)o3)nc2cc1OCCCN1CCCC1`, the values for the GI50 in data set [6] and in [16] were 664 nM and 269 nM, respectively. Further, the remaining at 20 min, 1 µM in data set [7] is 70.9%; in data set [14] (liver microsomes, read-out: Stability) it was 99.7%. Moreover, in [15], the inhibition in vivo at […] came out at 70%. The half-life at 1 µM in data set [11] is 0.6 h; in [13] (liver microsomes), over 2.4 h. For the same molecule, the AUC(0-t) at 24 h in [17] worked out at 1.49 µM·h. The LC50 in data set [18] came to 1780 nM.
